According to patent US12157730B2, “Heteroaryl derivative, method for producing same, and pharmaceutical composition comprising same as effective component” (VORONOI INC., priority 2019, dated 2024):

Each compound was assayed against T1, Ba/F3 cell EGFR Exon20 ins NPH (Homo sapiens, UniProt P00533, INS773NPH) (assay: Ba/F3 cell proliferation suppression, EGFR Exon20 ins NPH). Conditions: GI50 class; Ba/F3 cell line with NPH inserted at Exon20 of EGFR; 72 hours.
T1 construct: expressed in transfected cells; host or cells: Ba/F3
Type: cell-based
Outline: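 72 h compound exposure, 0.3 nM–50 um (12 points, 3:1 dilution in DMSO); viability by CellTiter-Glo luminescence. Ba/F3 medium: RPMI-1640, 10% FBS, 5 ng/ml IL-3, 1 ug/ml puromycin for transduced cells. GI50 vs control, n=3.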

SMILES | Ba/F3 (NPH) Activity
C=CC(=O)Nc1cc(Nc2cc(N3OCC[C@@H]3c3ccc(C)nc3)ncn2)c(OC)cc1N1CCC(N2CCN(C(C)=O)CC2)CC1 [Example 232, N-(2-(4-(4-acetylpiperazine-1-yl)piperidine-1-yl)-4-methoxy-5-((6-((R)-3-(6-methylpyridine-3-yl)isoxazolidine-2-yl)pyrimidine-4-yl)amino)phenyl) acrylamide] | B (50 nM ≤ GI50 < 500 nM)
C=CC(=O)Nc1cc(Nc2cc(N3OCC[C@@H]3c3cccc(OC)c3)ncn2)c(OC)cc1N1CCC(N2C[C@@H](C)O[C@@H](C)C2)CC1 [compound 727, N-(2-(4-((2S,6R)-2,6-dimethylmorpholino)piperidine-1-yl)-4-methoxy-5-((6-((R)-3-(3-methoxyphenyl)isoxazolidine-2-yl)pyrimidine-4-yl)amino)phenyl)acrylamide] | A (GI50 < 50 nM)
C=CC(=O)Nc1cc(Nc2cc(N3OCC[C@@H]3c3cc(F)cc(F)c3)ncn2)c(OC)cc1N1CCC(N2C[C@@H](C)N(C3CC3)C[C@@H]2C)CC1 [Example 108, N-(2-(4-((2S,5R)-4-cyclopropyl-2,5-dimethylpiperazine-1-yl)piperidine-1-yl)-5-((6-((R)-3-(3,5-difluorophenyl)isoxazolidine-2-yl)pyrimidine-4-yl)amino)-4-methoxyphenyl) acrylamide] | A (GI50 < 50 nM)
C=CC(=O)Nc1cc(Nc2cc(N3OCC[C@@H]3c3ccc(F)c(F)c3F)ncn2)c(OC)cc1N1CCC(N2C[C@@H]3C[C@H]2CO3)CC1 [compound 574, N-(2-(4-((1S,4S)-2-oxa-5-azabicyclo [2.2.1]heptane-5-yl)piperidine-1-yl)-4-methoxy-5-((6-((R)-3-(2,3,4-trifluorophenyl)isoxazolidine-2-yl)pyrimidine-4-yl)amino)phenyl)acrylamide] | A (GI50 < 50 nM)
C=CC(=O)Nc1cc(Nc2cc(N3OCC[C@@H]3c3cccc(Cl)c3C)ncn2)c(OC)cc1N1CCC(N2C[C@@H]3C[C@H]2CO3)CC1 [compound 531, N-(2-(4-((1S,4S)-2-oxa-5-azabicyclo[2.2.1]heptane-5-yl)piperidine-1-yl)-5-((6-((R)-3-(3-chloro-2-methylphenyl)isoxazolidine-2-yl)pyrimidine-4-yl)amino)-4-methoxyphenyl) acrylamide] | A (GI50 < 50 nM)
C=CC(=O)Nc1cc(Nc2cc(N3OCC[C@@H]3c3cccc(C#N)c3)ncn2)c(OC)cc1N1CCC(N2CCN(C(C)C)CC2)CC1 [compound 494, N-(5-((6-((R)-3-(3-cyanophenyl)isoxazolidine-2-yl)pyrimidine-4-yl)amino)-2-(4-(4-isopropylpiperazine-1-yl)piperidine-1-yl)-4-methoxyphenyl) acrylamide] | A (GI50 < 50 nM)
C=CC(=O)Nc1cc(Nc2cc(N3OCC[C@@H]3c3ccc(F)c(Cl)c3)ncn2)c(OC)cc1N1CCC(N2C[C@H](C)N(C3CC3)C[C@@H]2C)CC1 [Example 121, N-(5-((6-((R)-3-(3-chloro-4-fluorophenyl)isoxazolidine-2-yl)pyrimidine-4-yl)amino)-2-(4-((2S,5S)-4-cyclopropyl-2,5-dimethylpiperazine-1-yl)piperidine-1-yl)-4-methoxyphenyl) acrylamide] | A (GI50 < 50 nM)
C=CC(=O)Nc1cc(Nc2cc(N3OCC[C@@H]3c3ccc(Cl)cc3)ncn2)c(OC)cc1N1CCC(N2CCN(C(C)C)CC2)CC1 [compound 807, N-(5-((6-((R)-3-(4-chlorophenyl)isoxazolidine-2-yl)pyrimidine-4-yl)amino)-2-(4-(4-isopropylpiperazine-1-yl)piperidine-1-yl)-4-methoxyphenyl) acrylamide] | A (GI50 < 50 nM)
C=CC(=O)Nc1cc(Nc2cc(N3OCC[C@@H]3c3cccc(Cl)c3Cl)ncn2)c(OC)cc1N1CCC(N2CCN(CC3CC3)CC2)CC1 [Example 204, N-(2-(4-(4-(cyclopropylmethyl)piperazine-1-yl)piperidine-1-yl)-5-((6-((R)-3-(2,3-dichlorophenyl)isoxazolidine-2-yl)pyrimidine-4-yl)amino)-4-methoxyphenyl) acrylamide] | A (GI50 < 50 nM)
C=CC(=O)Nc1cc(Nc2cc(N3OCC[C@@H]3c3cccc(Cl)c3Cl)ncn2)c(OC)cc1N1CCC(N2CCN(C(C)=O)CC2)CC1 [compound 608, N-(2-(4-(4-acetylpiperazine-1-yl)piperidine-1-yl)-5-((6-((R)-3-(2,3-dichlorophenyl)isoxazolidine-2-yl)pyrimidine-4-yl)amino)-4-methoxyphenyl) acrylamide] | A (GI50 < 50 nM)
C=CC(=O)Nc1cc(Nc2cc(N3OCC[C@@H]3c3cc(F)ccc3F)ncn2)c(OC)cc1N1CCC(N2CCN(C3CC3)CC2)CC1 [Example 61, N-(2-(4-(4-cyclopropylpiperazine-1-yl)piperidine-1-yl)-5-((6-((R)-3-(2,5-difluorophenyl)isoxazolidine-2-yl)pyrimidine-4-yl)amino)-4-methoxyphenyl) acrylamide;] | A (GI50 < 50 nM)
C=CC(=O)Nc1cc(Nc2cc(N3OCC[C@@H]3c3ccc(Cl)c(Cl)c3)ncn2)c(OC)cc1N1CCC(N2CCN(C(C)C)CC2)CC1 [compound 689, N-(5-((6-((R)-3-(3,4-dichlorophenyl)isoxazolidine-2-yl)pyrimidine-4-yl)amino)-2-(4-(4-isopropylpiperazine-1-yl)piperidine-1-yl)-4-methoxyphenyl) acrylamide] | B (50 nM ≤ GI50 < 500 nM)

Now from value to compound:

Ba/F3 (NPH) Activity | SMILES
A (GI50 < 50 nM) | C=CC(=O)Nc1cc(Nc2cc(N3OCC[C@@H]3c3cc(F)cc(F)c3)ncn2)c(OC)cc1N1CCOCC1 [compound 823, N-(5-((6-((R)-3-(3,5-difluorophenyl)isoxazolidine-2-yl)pyrimidine-4-yl)amino)-4-methoxy-2-morpholinophenyl) acrylamide]
A (GI50 < 50 nM) | C=CC(=O)Nc1cc(Nc2cc(N3OCC[C@@H]3c3ccc(F)c(Cl)c3F)ncn2)c(OC)cc1N1CCO[C@@H](C)C1 [compound 657, N-(5-((6-((R)-3-(3-chloro-2,4-difluorophenyl)isoxazolidine-2-yl)pyrimidine-4-yl)amino)-4-methoxy-2-((S)-2-methylmorpholino)phenyl)acrylamide]
B (50 nM ≤ GI50 < 500 nM) | C=CC(=O)Nc1cc(Nc2cc(N3OCC[C@@H]3c3cccc(C)c3F)ncn2)c(OC)cc1N(C)CCOC [compound 319, N-(5-((6-((R)-3-(2-fluoro-3-methylphenyl)isoxazolidine-2-yl)pyrimidine-4-yl)amino)-4-methoxy-2-((2-methoxyethyl) (methyl)amino)phenyl)acrylamide]
B (50 nM ≤ GI50 < 500 nM) | C=CC(=O)Nc1cc(Nc2cc(N3OCC[C@@H]3c3ccc(C)nc3)ncn2)c(OC)cc1N1CCN(CC)CC1 [Example 42, N-(2-(4-ethylpiperazine-1-yl)-4-methoxy-5-((6((R)-3-(6-methylpyridine-3-yl)isoxazolidine-2-yl)pyrimidine-4-yl)amino)phenyl) acrylamide]
A (GI50 < 50 nM) | C=CC(=O)Nc1cc(Nc2cc(N3OCC[C@@H]3c3cccc(Cl)c3F)ncn2)c(OC)cc1N1CCC(N2CC[C@@H](N(C)C)C2)CC1 [compound 914, N-(5-((6-((R)-3-(3-chloro-2-fluorophenyl)isoxazolidine-2-yl)pyrimidine-4-yl)amino)-2-(4-((R)-3-(dimethylamino)pyrolidine-1-yl)piperidine-1-yl)-4-methoxyphenyl) acrylamide]
A (GI50 < 50 nM) | C=CC(=O)Nc1cc(Nc2cc(N3OCC[C@@H]3c3cccc(F)c3F)ncn2)c(OC)cc1N1CCN(C)C[C@H]1C [compound 885, N-(5-((6-((R)-3-(2,3-difluorophenyl)isoxazolidine-2-yl)pyrimidine-4-yl)amino)-2-((R)-2,4-dimethylpiperazine-1-yl)-4-methoxyphenyl) acrylamide]
A (GI50 < 50 nM) | C=CC(=O)Nc1cc(Nc2cc(N3OCC[C@@H]3c3cc(F)cc(F)c3)ncn2)c(OC)cc1N1CCN(C)[C@H](C)C1 [compound 917, N-(5-((6-((R)-3-(3,5-difluorophenyl)isoxazolidine-2-yl)pyrimidine-4-yl)amino)-2-((R)-3,4-dimethylpiperazine-1-yl)-4-methoxyphenyl) acrylamide]
A (GI50 < 50 nM) | C=CC(=O)Nc1cc(Nc2cc(N3OCC[C@@H]3c3ccc(F)cc3F)ncn2)c(OC)cc1N1CCC(N(C)CCN(C)C)CC1 [compound 422, N-(5-((6-((R)-3-(2,4-difluorophenyl)isoxazolidine-2-yl)pyrimidine-4-yl)amino)-2-(4-((2-(dimethylamino)ethyl)(methyl)amino)piperidine-1-yl)-4-methoxyphenyl) acrylamide]
A (GI50 < 50 nM) | C=CC(=O)Nc1cc(Nc2cc(N3OCC[C@@H]3c3cccc(F)c3F)ncn2)c(OC)cc1N1CCC(N(C)C)CC1 [compound 926, N-(5-((6-((R)-3-(2,3-difluorophenyl)isoxazolidine-2-yl)pyrimidine-4-yl)amino)-2-(4-(dimethylamino)piperidine-1-yl)-4-methoxyphenyl) acrylamide]
A (GI50 < 50 nM) | C=CC(=O)Nc1cc(Nc2cc(N3OCC[C@@H]3c3cccc(F)c3)ncn2)c(OC)cc1N1CCC(N2CC[C@H](N(C)C)C2)CC1 [compound 744, N-(2-(4-((S)-3-(dimethylamino)pyrolidine-1-yl)piperidine-1-yl)-5-((6-((R)-3-(3-fluorophenyl)isoxazolidine-2-yl)pyrimidine-4-yl)amino)-4-methoxyphenyl) acrylamide]
A (GI50 < 50 nM) | C=CC(=O)Nc1cc(Nc2cc(N3OCC[C@@H]3c3ccc(F)cc3)ncn2)c(OC)cc1N1CCN(C)CC1 [compound 785, N-(5-((6-((R)-3-(4-fluorophenyl)isoxazolidine-2-yl)pyrimidine-4-yl)amino)-4-methoxy-2-(4-methylpiperazine-1-yl)phenyl)acrylamide]
